# ± gives the expanded uncertainty stated by the source.
# Key:
# [1] = refractive index (Na D-line) (dimensionless); xn = mol fraction of the nth substance listed; settings: 293.15 K, 93.13 kPa, Liquid, Standard Abbe refractometry
# [2] = refractive index (Na D-line) (dimensionless); settings: 293.15 K; 93.13 kPa; Liquid; Standard Abbe refractometry
# [3] = Liquid, Ebulliometric method (Recirculating still)
compound,measurement,setting,value
"Cc1cccc(C)c1 [1,3-dimethylbenzene] + COc1ccccc1",refractive index,[1]; x1 = 1,1.497 ± 0.0004
COc1ccccc1 [anisole] + Cc1cccc(C)c1,refractive index,[1]; x2 = 0,1.517 ± 0.0004
same,refractive index,[1]; x2 = 0.0756,1.5154 ± 0.0004
same,refractive index,[1]; x2 = 0.1836,1.5131 ± 0.0004
same,refractive index,[1]; x2 = 0.2143,1.5125 ± 0.0004
same,refractive index,[1]; x2 = 0.2716,1.5113 ± 0.0004
same,refractive index,[1]; x2 = 0.3152,1.5104 ± 0.0004
same,refractive index,[1]; x2 = 0.4196,1.5082 ± 0.0004
same,refractive index,[1]; x2 = 0.4711,1.5072 ± 0.0004
same,refractive index,[1]; x2 = 0.5086,1.5064 ± 0.0004
same,refractive index,[1]; x2 = 0.6083,1.5045 ± 0.0004
same,refractive index,[1]; x2 = 0.6746,1.5031 ± 0.0004
same,refractive index,[1]; x2 = 0.7383,1.5019 ± 0.0004
same,refractive index,[1]; x2 = 0.8189,1.5002 ± 0.0004
same,refractive index,[1]; x2 = 0.8552,1.4997 ± 0.0004
same,refractive index,[1]; x2 = 0.9339,1.4982 ± 0.0004
COc1ccccc1 [anisole] + Cc1ccc(C)cc1,refractive index,[1]; x2 = 0,1.517 ± 0.0004
same,refractive index,[1]; x2 = 0.0499,1.5157 ± 0.0004
same,refractive index,[1]; x2 = 0.1387,1.5138 ± 0.0004
same,refractive index,[1]; x2 = 0.1684,1.5131 ± 0.0004
same,refractive index,[1]; x2 = 0.2124,1.5122 ± 0.0004
same,refractive index,[1]; x2 = 0.2656,1.511 ± 0.0004
same,refractive index,[1]; x2 = 0.3055,1.5101 ± 0.0004
same,refractive index,[1]; x2 = 0.4128,1.5078 ± 0.0004
same,refractive index,[1]; x2 = 0.4494,1.507 ± 0.0004
same,refractive index,[1]; x2 = 0.4497,1.507 ± 0.0004
same,refractive index,[1]; x2 = 0.5122,1.5057 ± 0.0004
same,refractive index,[1]; x2 = 0.5626,1.5046 ± 0.0004
same,refractive index,[1]; x2 = 0.6095,1.5036 ± 0.0004
same,refractive index,[1]; x2 = 0.8055,1.4995 ± 0.0004
same,refractive index,[1]; x2 = 0.8904,1.4978 ± 0.0004
same,refractive index,[1]; x2 = 0.9613,1.4964 ± 0.0004
CCc1ccccc1 [ethylbenzene],refractive index,[2],1.4955 ± 0.0004
same,vapor or sublimation pressure,[3]; 406.23 K,93.13 ± 0.96 kPa
"Cc1ccc(C)cc1 [1,4-dimethylbenzene] + COc1ccccc1",refractive index,[1]; x1 = 1,1.4956 ± 0.0004
COc1ccccc1 [anisole] + CCc1ccccc1,refractive index,[1]; x2 = 0,1.517 ± 0.0004
same,refractive index,[1]; x2 = 0.0762,1.5152 ± 0.0004
same,refractive index,[1]; x2 = 0.1494,1.5136 ± 0.0004
same,refractive index,[1]; x2 = 0.1767,1.513 ± 0.0004
same,refractive index,[1]; x2 = 0.2118,1.5122 ± 0.0004
same,refractive index,[1]; x2 = 0.2442,1.5115 ± 0.0004
same,refractive index,[1]; x2 = 0.2691,1.511 ± 0.0004
same,refractive index,[1]; x2 = 0.3432,1.5093 ± 0.0004
same,refractive index,[1]; x2 = 0.4041,1.508 ± 0.0004
same,refractive index,[1]; x2 = 0.412,1.5077 ± 0.0004
same,refractive index,[1]; x2 = 0.4651,1.5066 ± 0.0004
same,refractive index,[1]; x2 = 0.5183,1.5055 ± 0.0004
same,refractive index,[1]; x2 = 0.6208,1.5033 ± 0.0004
same,refractive index,[1]; x2 = 0.6885,1.5019 ± 0.0004
same,refractive index,[1]; x2 = 0.7927,1.4998 ± 0.0004
same,refractive index,[1]; x2 = 0.9056,1.4975 ± 0.0004
same,refractive index,[1]; x2 = 0.9514,1.4965 ± 0.0004
COc1ccccc1 [anisole] + Cc1ccccc1C,refractive index,[1]; x2 = 0,1.517 ± 0.0004
same,refractive index,[1]; x2 = 0.0825,1.5159 ± 0.0004
same,refractive index,[1]; x2 = 0.1066,1.5156 ± 0.0004
same,refractive index,[1]; x2 = 0.1439,1.5151 ± 0.0004
same,refractive index,[1]; x2 = 0.1945,1.5144 ± 0.0004
same,refractive index,[1]; x2 = 0.2976,1.5131 ± 0.0004
same,refractive index,[1]; x2 = 0.3812,1.512 ± 0.0004
same,refractive index,[1]; x2 = 0.4796,1.5109 ± 0.0004
same,refractive index,[1]; x2 = 0.617,1.5092 ± 0.0004
same,refractive index,[1]; x2 = 0.6785,1.5084 ± 0.0004
same,refractive index,[1]; x2 = 0.7801,1.5072 ± 0.0004
same,refractive index,[1]; x2 = 0.9159,1.5057 ± 0.0004
same,refractive index,[1]; x2 = 0.9329,1.5056 ± 0.0004
"Cc1cccc(C)c1 [1,3-dimethylbenzene]",refractive index,[2],1.497 ± 0.0004
same,vapor or sublimation pressure,[3]; 409.13 K,93.13 ± 0.96 kPa
COc1ccccc1 [anisole],refractive index,[2],1.517 ± 0.0004
same,vapor or sublimation pressure,[3]; 423.38 K,93.13 ± 0.96 kPa
"Cc1ccccc1C [1,2-dimethylbenzene] + COc1ccccc1",refractive index,[1]; x1 = 1,1.5048 ± 0.0004
"Cc1ccccc1C [1,2-dimethylbenzene]",refractive index,[2],1.5048 ± 0.0004
same,vapor or sublimation pressure,[3]; 414.41 K,93.13 ± 0.96 kPa
"Cc1ccc(C)cc1 [1,4-dimethylbenzene]",refractive index,[2],1.4956 ± 0.0004
same,vapor or sublimation pressure,[3]; 408.37 K,93.13 ± 0.96 kPa
CCc1ccccc1 [ethylbenzene] + COc1ccccc1,refractive index,[1]; x1 = 1,1.4955 ± 0.0004
